Reference: US5633255A, “1,2-dihydro-2-oxo-3-aminoquinoxaline derivatives, their preparation and their therapeutic application” (Pierre Fabre Medicament, priority 1992, dated 1997)
In brackets after ≈: the same amount, converted by molar mass. Counter-ions that a name gives are not always drawn.

Columns and labels:
Zymosan Pleurisy = test: pleurisy model with Zymosan in rats; format: in vivo, rat (male Sprague Dawley); details: po; rat, 100 mg/kg p.o. one hour before Zymosan (10 mg intrapleural), exudate measured 1 hour later; read-out: Zymosan Pleurisy volume pleural exudate
Description: The compounds of the invention were also tested on the pleurisy model with Zymosan in rats ([…] et al. Pharmacol. Res., 21, 385, 1989) according to the following procedure: 10 mg of Zymosan in a volume of 0.15 ml of sterile 0.9% NaCl are injected into the pleural cavity of male Sprague Dawley rats mildly anesthetized with ether. The animals are sacrificed 1 hour later and the pleural exudate is withdrawn and measured. The animals are kept unfed from the evening before. The products are administered p.o. one hour before injection of the inflammation-inducing agent, at a dose of 100 mg/kg.

[1] = system: trachea (contraction induced by histamine); test: antagonism of the effect of histamine (contractions of isolated guinea pig trachea); format: cell-based; details: Cavia porcellus, 5 min, histamine dihydrochloride 10 μg/ml, 5 min contact, 37° C.
Description: (§1) To this end, the compounds were studied for their antagonistic effect on the contractions induced by various products according to the following procedure. A piece of trachea from a male three-colored guinea pig weighing 400 g on average is cut into rings and mounted (2.5 cm approximately) in an insulated organ tank which is thermostatted at 37° C. and filled with oxygenated Tyrode's solution. The isometric contractions induced by the various mediators are recorded using a Gould Statham UC2 sensor (Gould Inc. Oxnard, Calif., U.S.A.) or a Palmer Bioscience UF1 sensor connected to a potentiometric recorder ([…], Selb, FRG). At the start of the experiment, the fragment of trachea is subjected to a tension of 1 g and left to stand for 1 hour. The following mediator concentrations are used (concentrations generally inducing a maximum contraction): histamine dihydrochloride, 10 μg/ml; potassium chloride, 1850 μg/ml. The concentrations of agents used result in contractions which become maximal after 5 to 15 min. depending on the mediators and remain at a steady level thereafter. A concentration of the product studied is administered for each contraction and the product is left in contact with the trachea for 5 min. The possible inhibition obtained after this time is measured (percentage of variation in the amplitude of the contraction). The trachea is next washed for 15 seconds and left to stand for 10 min. approximately (time necessary to return to the base tonus) before inducing a new contraction. The water-insoluble products are diluted in 0.178% (v.v) (final bath concentration) dimethyl sulfoxide (DMSO). […] The 50% inhibitory concentrations (IC50) are calculated using an SAS (Statistical Analysis System) program based on the model of Bliss and […] (Bliss C. I. and […]. Biological Assay Ann. Rev. Physiol. 5, 479, 1943).

[2] = system: trachea (contraction induced by potassium chloride); test: antagonism of the effect of potassium chloride (contractions of isolated guinea pig trachea); format: cell-based; details: Cavia porcellus, 5 min, potassium chloride 1850 μg/ml, 5 min contact, 37° C.
Description: as §1

Question: Which change in vivo at 100 mg/kg (Zymosan Pleurisy) does the source give for `CCCn1c(=O)c(N)nc2ccccc21.Cl` [Compound 5, 1-n-propyl-1,2-dihydro-2-oxo-3-aminoquinoxaline hydrochloride] here?
Answer: Its change in vivo at 100 mg/kg is -21%.

Question: And the IC50 [1]?
Answer: The IC50 was 4.6 µg/mL.

Question: What about the IC50 [2] of the same compound?
Answer: The IC50 was 19.3 µg/mL.

Question: What does the source list for `CCCn1c(=O)c(NC)nc2ccccc21.Cl` [Compound 6, 1-n-propyl-1,2-dihydro-2-oxo-3-methylaminoquinoxaline hydrochloride]?
Answer: change in vivo at 100 mg/kg (Zymosan Pleurisy): -27%; IC50 [1]: 6.4 µg/mL; IC50 [2]: 4.7 µg/mL

Question: What does the source list for `CCCn1c(=O)c(N(C)C)nc2ccccc21.Cl` [Compound 7, 1-n-propyl-1,2-dihydro-2-oxo-3-dimethylaminoquinoxaline hydrochloride]?
Answer: change in vivo at 100 mg/kg (Zymosan Pleurisy): -44%; IC50 [1]: 10.7 µg/mL; IC50 [2]: 28 µg/mL

Question: For `CCCCn1c(=O)c(N)nc2ccccc21` [Compound 8], which change in vivo at 100 mg/kg (Zymosan Pleurisy) is on record?
Answer: The change in vivo at 100 mg/kg was 4%.

Question: What about the IC50 [1] of the same compound?
Answer: The IC50 was 1.7 µg/mL (≈ 7.82 µM).

Question: And the IC50 [2]?
Answer: The IC50 was 9.6 µg/mL (≈ 44.2 µM).

Question: Which results are given for `CCCCn1c(=O)c(NC)nc2ccccc21` [Compound 9]?
Answer: change in vivo at 100 mg/kg (Zymosan Pleurisy): -29%; IC50 [1]: 0.55 µg/mL (≈ 2.38 µM); IC50 [2]: 11.1 µg/mL (≈ 48 µM)

Question: For `CCCCn1c(=O)c(N(C)C)nc2ccccc21` [Compound 10], which change in vivo at 100 mg/kg (Zymosan Pleurisy) is on record?
Answer: The change in vivo at 100 mg/kg was -47%.

Question: What about the IC50 [1] of the same compound?
Answer: The IC50 was 5.7 µg/mL (≈ 23.2 µM).

Question: And the IC50 [2]?
Answer: The IC50 was 45 µg/mL (≈ 183 µM).

Question: How did the change in vivo at 100 mg/kg (Zymosan Pleurisy) turn out when `C=CCn1c(=O)c(N)nc2ccccc21` [Compound 11] was run?
Answer: Its change in vivo at 100 mg/kg is -33%.

Question: What about the IC50 [1] of the same compound?
Answer: Its IC50 is 5.9 µg/mL (≈ 29.3 µM).

Question: What about the IC50 [2] of the same compound?
Answer: Its IC50 is 21 µg/mL (≈ 104 µM).

Question: With `C=CCn1c(=O)c(NC)nc2ccccc21` [Compound 12] as the compound, how does the change in vivo at 100 mg/kg (Zymosan Pleurisy) read?
Answer: The change in vivo at 100 mg/kg was -31%.

Question: And the IC50 [1]?
Answer: The IC50 was 1.1 µg/mL (≈ 5.11 µM).

Question: And the IC50 [2]?
Answer: The IC50 was 9.1 µg/mL (≈ 42.3 µM).

Question: For `C=CCn1c(=O)c(N(C)C)nc2ccccc21` [Compound 13], which change in vivo at 100 mg/kg (Zymosan Pleurisy) is on record?
Answer: Its change in vivo at 100 mg/kg is -43%.

Question: And the IC50 [1]?
Answer: Its IC50 is 8.6 µg/mL (≈ 37.5 µM).

Question: What about the IC50 [2] of the same compound?
Answer: The IC50 was 19.3 µg/mL (≈ 84.2 µM).

Question: `CC(C)=CCn1c(=O)c(N)nc2ccccc21` [Compound 14, hydrochloride] was tested. Which change in vivo at 100 mg/kg (Zymosan Pleurisy) did it give?
Answer: The change in vivo at 100 mg/kg was -14%.

Question: What about the IC50 [1] of the same compound?
Answer: Its IC50 is 2.6 µg/mL.

Question: And the IC50 [2]?
Answer: The IC50 was 7.4 µg/mL.

Question: What does the source list for `CNc1nc2ccccc2n(CC=C(C)C)c1=O` [Compound 15]?
Answer: change in vivo at 100 mg/kg (Zymosan Pleurisy): -5%; IC50 [1]: 0.65 µg/mL (≈ 2.67 µM)

Question: With `CC(C)=CCn1c(=O)c(N(C)C)nc2ccccc21` [Compound 16] as the compound, how does the IC50 [1] read?
Answer: The IC50 was 13.5 µg/mL (≈ 52.5 µM).

Question: What does the source list for `CC(C)(O)CCn1c(=O)c(N)nc2ccccc21` [Compound 17, 1-(3-methyl-3-hydroxy)butyl-1,2-dihydro-2-oxo-3-aminoquinoxaline hydrochloride]?
Answer: IC50 [1]: 23 µg/mL; IC50 [2]: 45 µg/mL

Question: `Cn1c(=O)c2[nH]cnc2n(C)c1=O` [Theophylline, reference compound] was tested. Which IC50 [1] did it give?
Answer: The IC50 was 30 µg/mL (≈ 167 µM).

Question: And the IC50 [2]?
Answer: The IC50 was 30 µg/mL (≈ 167 µM).
